Measured values published in publication PMC7386434 (Organic letters, 2010).

Tests used:
Assay type in all cases: cell-based
[1] = tested on: colorectal carcinoma cell line HCT-116; test: Antiproliferative activity, HCT-116 cells; conditions: Homo sapiens, HCT-116, read-out: GI50 HCT-116
[2] = tested on: human lung cancer cell line (A549); test: Antiproliferative activity, A549 cells; conditions: A549, read-out: GI50 A549
[3] = tested on: human embryonic kidney cell line (HEK293); test: Antiproliferative activity, HEK293 cells; conditions: HEK293, read-out: GI50 HEK293
[4] = tested on: human embryonic lung fibroblast (HLF) cells; test: Antiproliferative activity, HLF cells; conditions: read-out: GI50 HLF

With `CCCCCCCC(=O)SCC/C=C/[C@@H]1CC(=O)NCc2nc(cs2)C2=N[C@@](C)(CS2)C(=O)N[C@@H](C(C)C)C(=O)O1` [compound 1, largazole] the GI50 [1] was 80 nM, the GI50 [2] was 320 nM and the GI50 [3] was 1360 nM. For the same molecule, the GI50 [4] was 980 nM.
